The subject of one test is caspase-3-like protease. Briefly: Inhibition of caspase activity by pre-incubating cell lysates with inhibitor. In kind it is biochemical, human. The conditions noted are these: 10 μM, lysates pre-incubated at 37° C. for 30 min. On the procedure: (§1) (A) Total cell lysates were prepared 2 days after treatment with 5 μg/ml CDDP. Samples were assayed for protease activity using the peptide substrate, Ac-DEVD-pNA. […] Cells were also treated with the plasma membrane-soluble caspase inhibitor Z-Asp-CH2DCB (200 μM) prior to and during CDDP treatment. □, U87MG; ▪, U87MG.ΔEGFR;_, U87MG.DK;_, U87MG.wtEGFR. […] (B) Proteolytic cleavage of PARP after CDDP treatment. For each sample, 20 μg total clarified protein lysate was loaded on to SDS-PAGE gels, electrophoresed, transferred to membranes and probed with anti-PARP monoclonal antibodies. FL, full-length; CF, cleaved fragment.
Cells were lysed in lysis buffer (ApoAlert, Clontech, Palo Alto, Calif.) for 15 min on ice, followed by centrifugation. Protease assays included 89 μl of reaction buffer (100 mM HEPES, pH 7.5, 20% v/v glycerol, 6 mM dithiothreitol, and 0.5 mM EDTA), I μl of 10 mM acetyl-Asp-Glu-Val-Asp-p-nitroanilide (Ac-DEVD-pNA) in DMSO (California Peptide Research, Inc., Napa, Calif.), and 10 μl of equal protein cell lysate. Samples were incubated at 37° C., and enzyme-catalyzed release of p-nitroanilide (pNA) was monitored at […] for 1 h in a microtiter plate reader (Molecular Devices Inc., Sunnyvale, Calif.). […] Values for picomoles of pNA released were calculated from those observed in OD405 values using a standard curve of pNA. […]

Test [1] deals with U87MG.ΔEGFR cells. In words: Cell survival (colony forming efficiency) assay. In kind it is cell-based, human. The conditions noted are these: drug 1 hr, then 10 to 12 days in fresh medium; colony count. On the procedure:
Western blot analysis of expression (lower) and auto-phosphorylation (upper) of wt EGFR (♦) and ΔEGFR (●) in U87MG, U87MG.ΔEGFR, U87MG.DK and U87MG.wtEGFR cells grown in media containing 10% serum. Low and similar levels of endogenous wt EGFR expression was also detected in U87MG, U87MG.ΔEGFR and U87MG.DK at longer exposures (data not shown). […] Cells were plated in triplicate 60-mm dishes and treated with media containing various concentrations of CDDP for 1 hr, followed by incubation with fresh media for 10 to 12 days. Numbers of colonies were counted after Giemsa staining. Results were reproduced in four independent experiments; bars, SID.
To determine the level of resistance of the cells to chemotherapeutic agents, colony forming efficiency assays were performed as described (20). Briefly, 400 or 700 cells were seeded in triplicate into dishes having a 60-mm diameter. On the next day cells were treated with various concentrations of CDDP for 1 hr or Taxol or vincristine for 2 hr, and then further incubated for 10 to 12 days in the fresh medium. The cells were fixed in methanol, stained with Giemsa solution (Sigma) and the number of colonies containing greater than 50 cells were counted. The survival fraction was calculated as the ratio of the colony-forming efficiency of drug-treated and untreated cells. […]

Test [2] relates to U87MG.ΔEGFR cells. In words: In situ TUNEL labeling of apoptotic DNA fragmentation. The conditions noted are these: CDDP 5 μg/ml for 2 days; p<0.001. In kind it is cell-based, human. On the procedure:
Cells were seeded on cover slips, treated with 5 μg/ml of CDDP for 2 days, and then TUNEL assays were performed. The percent of TUNEL-positive cells induced by CDDP treatment was assessed by counting more than 400 cells per coverslip. □, U87MG; ▪, U87MG.ΔEGFR;_, U87MG.DK;_, U87MG.wtEGFR.
For each sample, 20 μg of lysate was used. […] For control, the vehicle (DMSO) was used. Apoptosis rate determined by TUNEL assays of triplicate cover slips.
Apoptotic cells were detected by use of terminal deoxynucleotidyl transferase mediated nick end labeling (TUNEL) of apoptotic DNA strand breaks as described (16). Apoptotic index was calculated as a ratio of apoptotic cell number to total tumor cell number within the areas by counting more than 400 cells in each coverslip.

A further test deals with caspase-3-like proteases. Briefly: Caspase activity assay in lysates of treated cells (Ac-DEVD-pNA substrate). In kind it is cell-based, human. The conditions noted are these: 48 hours after CDDP 5 μg/ml. On the procedure: as §1
Cells were lysed in lysis buffer (ApoAlert, Clontech, Palo Alto, Calif.) for 15 min on ice, followed by centrifugation. Protease assays included 89 μl of reaction buffer (100 mM HEPES, pH 7.5, 20% v/v glycerol, 6 mM dithiothreitol, and 0.5 mM EDTA), I μl of 10 mM acetyl-Asp-Glu-Val-Asp-p-nitroanilide (Ac-DEVD-pNA) in DMSO (California Peptide Research, Inc., Napa, Calif.), and 10 μl of equal protein cell lysate. Samples were incubated at 37° C., and enzyme-catalyzed release of p-nitroanilide (pNA) was monitored at […] for 1 h in a microtiter plate reader (Molecular Devices Inc., Sunnyvale, Calif.). Aliquots of cell lysates diluted into the reaction buffer were first incubated with 10 μM caspase-3-like protease inhibitor, Ac-Asp-Glu-Val-Asp-aldehyde (Ac-DEVD-CHO) (Bachem, Torrance, Calif.), at 37° C. for 30 min. Values for picomoles of pNA released were calculated from those observed in OD405 values using a standard curve of pNA. One unit of protease activity was defined as the amount of enzyme required to release 1 pmol pNA/min at 37° C. For in vivo caspase inhibition studies, cells were cultured in the presence of peptide caspase inhibitor Z-Asp-CH2-DCB (Bachem).

Another test concerns Bcl-XL. In words: Western blot of Bcl-XL expression. In kind it is cell-based, human. On the procedure: Total cell lysates were prepared at the various time points indicated. For each sample, 20 μg of lysate protein was used. Results were reproduced in three independent experiments. […] For each sample, 20 μg of lysate was used. […] For control, the vehicle (DMSO) was used. Apoptosis rate determined by TUNEL assays of triplicate cover slips. […] Cell lysates were prepared in RIPA buffer (16), equal protein per sample was separated on SDS-polyacrylamide gels, and transferred to nitrocellulose membranes (BioRad, Hercules, Calif.). Proteins on the membranes were probed with antibodies to Bcl-XL (Transduction, Lexington, Ky.), poly(ADP-ribose) polymerase (PARP) (C2-10; […]
(In general: A western blot detects proteins with antibodies after separation by electrophoresis.)

A further test has as its system PARP. Briefly: Western blot of proteolytic cleavage of PARP. The format is cell-based, human. As for the experimental part: as §1
Cell lysates were prepared in RIPA buffer (16), equal protein per sample was separated on SDS-polyacrylamide gels, and transferred to nitrocellulose membranes (BioRad, Hercules, Calif.). Proteins on the membranes were probed with antibodies to Bcl-XL (Transduction, Lexington, Ky.), poly(ADP-ribose) polymerase (PARP) (C2-10; Enzyme System Products, Dublin, Calif.), EGFR (C13) (15), or phosphotyrosine (4G10, Upstate Biotechnology, Lake Placid, N.Y.), and detected by chemiluminescence (Amersham).

Here are results for two compounds from patent US20010051628A1, “METHODS TO MODULATE THE RESISTANCE OF CELLS TO APOPTOSIS MEDIATED BY MUTANT EPIDERMAL GROWTH FACTOR RECEPTORS” (priority 1998, published 2001).

As for “Ac-Asp-Glu-Val-Asp-aldehyde (Ac-DEVD-aldehyde) [Ac-DEVD-CHO]”, in the test on caspase-3-like protease, the “effect on increased caspase activities of lysates from CDDP-treated cells” value is recorded as “completely abolished”.

As for `[NH2][Pt]([NH2])([Cl])[Cl]` [CDDP, cisplatin], the “IC50 value (survival) of U87MG.ΔEGFR cells relative to parental U87MG cells” value in the test on U87MG.ΔEGFR cells [1] was determined as 4.3 fold. For the same compound, the “proportion of TUNEL-positive cells, U87MG.ΔEGFR lower than U87MG, U87MG.DK or U87MG.wtEGFR” value with U87MG.ΔEGFR cells [2] is “more than 5 fold lower”. Moreover, the “caspase-3-like protease activity relative to basal activity” value came to 5.3 fold in the test with caspase-3-like proteases (U87MG parental cells), 4.7 fold with caspase-3-like proteases (U87MG.DK cells), 6.4 fold with caspase-3-like proteases (U87MG.wtEGFR cells) and 2.0 fold with caspase-3-like proteases (U87MG.ΔEGFR cells). Further, the “Bcl-XL expression level during CDDP treatment” value with Bcl-XL (U87MG, U87MG.DK and U87MG.wtEGFR cells, continuous exposure for more than 24 hr) is “equally decreased”; in the test on Bcl-XL (U87MG.ΔEGFR cells), “remained unchanged”. Moreover, the “cleavage of 116-kDa full-length PARP into 85-kDa fragment” value with PARP (U87MG, U87MG.DK and U87MG.wtEGFR cells, 24 hr after CDDP) is given as “observed”; in the test on PARP (U87MG.ΔEGFR cells, 48 hr after CDDP), “trace levels”.
